From ChEMBL document CHEMBL1156734, “Discovery of 1,3-disubstituted-1H-pyrrole derivatives as potent melanin-concentrating hormone receptor 1 (MCH-R1) antagonists” (Bioorg Med Chem Lett, 2008)

Tests used:
[1] = biological target: T1, Melanin-concentrating hormone receptor 1 (Homo sapiens, UniProt Q99705); test: Antagonist activity at human MCHR1 expressed in HEK293 cells assessed as [35S]GTPgammaS accumulation; format: functional, cell-based
[2] = biological target: T1, Melanin-concentrating hormone receptor 1; test: Displacement of [125I]MCH from human MCHR1 expressed in HEK293 cells; format: cell-based
[3] = Fraction unbound in human plasma; format: ADME, cell-free
Liver microsomes = test: Metabolic stability in human liver microsomes; format: ADME, Microsome
Mus musculus = test: Intrinsic clearance in C57BL mouse at 20 uM/kg, iv; format: ADME, organism-based; details: in vivo

T1 sequence (Q99705 whole entry): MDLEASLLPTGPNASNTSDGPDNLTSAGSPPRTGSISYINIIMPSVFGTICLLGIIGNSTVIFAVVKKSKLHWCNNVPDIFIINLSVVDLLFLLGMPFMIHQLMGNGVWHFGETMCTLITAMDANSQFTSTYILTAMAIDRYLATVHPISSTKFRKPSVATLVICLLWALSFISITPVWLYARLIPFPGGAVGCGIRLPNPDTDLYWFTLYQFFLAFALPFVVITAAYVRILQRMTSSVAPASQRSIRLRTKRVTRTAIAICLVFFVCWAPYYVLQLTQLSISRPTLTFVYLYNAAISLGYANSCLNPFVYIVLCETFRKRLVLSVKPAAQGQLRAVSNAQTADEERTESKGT

Work on `Cc1c(-c2ccccc2)[nH]c(=O)n1C1CCN(Cc2ccn(-c3ccc(C(F)(F)F)cc3)c2)CC1` yielded an IC50 [1] of 0.071 µM and an IC50 [2] of 0.026 µM.

Compound `O=C(COc1cccc(Cl)c1)NCC1CCN(Cc2ccn(-c3ccc(C(F)(F)F)cn3)c2)CC1` has an IC50 [2] of 0.313 µM.

Compound `O=C(COc1cccc(Cl)c1)NCC1CCCN(Cc2ccn(-c3ccc(C(F)(F)F)cn3)c2)C1` (stereo not given) has an IC50 [2] of 0.303 µM.

`O=C(COc1ccc(F)c(F)c1)NCC1CN(Cc2ccn(-c3ccc(C(F)(F)F)cc3)c2)CCO1` (stereo not given) showed an IC50 [2] of 0.269 µM.

`Fc1ccc(-c2cc(C3CCN(Cc4ccn(-c5ccc(C(F)(F)F)cc5)c4)CC3)on2)cc1` showed an IC50 [2] of 0.066 µM.

`Fc1ccc(-c2ncc(C3CCN(Cc4ccn(-c5ccc(C(F)(F)F)cc5)c4)CC3)[nH]2)cc1` gave an IC50 [2] of 0.113 µM.

In the case of `Fc1ccc(-c2cc(C3CCN(Cc4ccn(-c5ccc(C(F)(F)F)cc5)c4)CC3)n[nH]2)cc1`, the IC50 [1] is reported as 0.058 µM and the IC50 [2] is reported as 0.037 µM.

`O=C(COc1cccc(Cl)c1)NC1CCN(Cc2cccc(-n3cccc3)c2)CC1` gave an IC50 [2] of 0.297 µM.

Work on `O=C(COc1cccc(Cl)c1)NC1CCN(Cc2ccc3ccccc3c2)CC1` yielded an IC50 [1] of 0.104 µM and an IC50 [2] of 0.041 µM.

For `O=C(COc1cccc(Cl)c1)NC1CCN(Cc2cc3c(cc2Cl)OCO3)CC1`, the IC50 [1] was 0.505 µM and the IC50 [2] was 0.082 µM.

Compound `O=C(COc1cccc(Cl)c1)NC1CCN(Cc2ccc3[nH]ccc3c2)CC1` has an IC50 [2] of 2.34 µM.

With `O=C(COc1cccc(Cl)c1)NC1CCN(Cc2ccn(-c3ccc(C(F)(F)F)cn3)c2)CC1` the IC50 [1] was 0.092 µM and the IC50 [2] was 0.048 µM.

For `COc1ccc(-n2ccc(CN3CCC(NC(=O)COc4cccc(Cl)c4)CC3)c2)cc1`, the IC50 [1] was 0.09 µM and the IC50 [2] was 0.1 µM.

Work on `O=C(COc1cccc(Cl)c1)NC1CCN(Cc2ccc(-c3ccc(C(F)(F)F)cn3)o2)CC1` yielded an IC50 [2] of 0.927 µM.

Work on `O=C(COc1cccc(Cl)c1)NC1CCN(Cc2ccn(-c3ccc(C(F)(F)F)cc3)c2)CC1` yielded a fraction unbound [3] of 0.012, a clearance (Liver microsomes) of 38 µL/min/mg and a CL (Mus musculus) of 2.46 L/h/kg.

For `O=C(COc1cccc(Cl)c1)NC1CCN(Cc2ccn(C3CCCC3)c2)CC1`, the IC50 [2] was greater than 33 µM.

`CC(c1ccn(-c2ccc(C(F)(F)F)cc2)c1)N1CCC(NC(=O)COc2cccc(Cl)c2)CC1` (stereo not given) gave an IC50 [1] of 0.117 µM and an IC50 [2] of 0.043 µM.

In the case of `Cc1cc(CN2CCC(NC(=O)COc3cccc(Cl)c3)CC2)c(C)n1-c1ccccc1`, the IC50 [2] is reported as 9.65 µM.

`O=C(COc1cccc(Cl)c1)NC1CCN(Cc2ccn(-c3ccccc3)c2)CC1` showed an IC50 [2] of 0.71 µM.

In the case of `O=C(COc1cccc(Cl)c1)NC1CCN(Cc2cn(-c3ccc(C(F)(F)F)cc3)cn2)CC1`, the IC50 [2] is reported as 2.14 µM.

Compound `O=C(COc1cccc(Cl)c1)N[C@H]1[C@@H]2CN(Cc3ccn(-c4ccc(C(F)(F)F)cc4)c3)C[C@@H]21` has an IC50 [2] of 0.111 µM.

`CN(C(=O)COc1cccc(Cl)c1)C1CCN(Cc2ccn(-c3ccc(C(F)(F)F)cc3)c2)CC1` gave an IC50 [2] of 0.109 µM.

For `FC(F)(F)c1ccc(-n2ccc(CN3CCC(NCCOc4cccc(Cl)c4)CC3)c2)cc1`, the IC50 [2] was 0.636 µM.

Work on `O=C(COc1cccc(Cl)c1)NC1CCN(Cc2csc(-c3ccc(Cl)cc3)n2)CC1` yielded an IC50 [2] of 0.347 µM.

For `O=C(COc1cccc(Cl)c1)NC1CCCN(Cc2ccn(-c3ccc(C(F)(F)F)cn3)c2)C1` (stereo not given), the IC50 [2] was 3.05 µM.

With `O=C(COc1ccc(F)c(F)c1)NC1CCN(Cc2ccn(-c3ccc(C(F)(F)F)cc3)c2)C1` (stereo not given) the IC50 [1] was 0.048 µM and the IC50 [2] was 0.029 µM.

Compound `O=C(COc1ccc(F)c(F)c1)N[C@H]1CC[C@H](Nc2ccn(-c3ccc(C(F)(F)F)cc3)c2)C1` has an IC50 [2] of 2.26 µM.

`O=C(COc1cccc(Cl)c1)N1CCC(Nc2ccn(-c3ccc(C(F)(F)F)cn3)c2)CC1` showed an IC50 [2] of 1.25 µM.

Compound `Cc1cccc(OCC(=O)NCC2CN(Cc3ccn(-c4ccc(C(C)(C)C)cn4)c3)C2)c1` has an IC50 [2] of 0.169 µM.

Work on `O=C(COc1cccc(Cl)c1)NC1CCN(Cc2ccn(-c3ccon3)c2)CC1` yielded an IC50 [2] of 1.5 µM.

Work on `Fc1ccc(-c2c[nH]c(C3CCN(Cc4ccn(-c5ccc(C(F)(F)F)cc5)c4)CC3)n2)cc1` yielded an IC50 [1] of 0.122 µM and an IC50 [2] of 0.02 µM.

`Fc1ccc(-c2cc(C3CCN(Cc4ccn(-c5ccc(C(F)(F)F)cc5)c4)CC3)no2)cc1` showed an IC50 [1] of 0.067 µM and an IC50 [2] of 0.025 µM.

For `O=C(COc1cccc(Cl)c1)NC1CCN(Cc2ccc(-c3ccc(OC(F)(F)F)cc3)o2)CC1`, the IC50 [1] was 0.103 µM and the IC50 [2] was 0.078 µM.

With `N#Cc1ccc(-n2ccc(CN3CCC(NC(=O)COc4cccc(Cl)c4)CC3)c2)cc1` the IC50 [1] was 0.145 µM and the IC50 [2] was 0.052 µM.

`O=C(COc1cccc(Cl)c1)NC1CCN(Cc2ccn(-c3ccc(OC(F)(F)F)cc3)c2)CC1` gave a fraction unbound [3] of 0.032, a clearance (Liver microsomes) of 21 µL/min/mg and an IC50 [1] of 0.015 µM. For the same compound, the CL (Mus musculus) was 2.04 L/h/kg and the IC50 [2] was 0.031 µM.

Work on `O=C(NC1CCN(Cc2ccc(Cl)c(Cl)c2)CC1)c1csc([N+](=O)[O-])c1` yielded an IC50 [1] of 0.804 µM and an IC50 [2] of 0.092 µM.

With `O=C(COc1cccc(Cl)c1)NC1CCN(Cc2ccc3c(c2)OCCO3)CC1` the IC50 [2] was 0.903 µM.

For `O=C(COc1cccc(Cl)c1)NC1CCN(Cc2ccc(-c3ccccn3)cc2)CC1`, the IC50 [2] was 0.12 µM.

Compound `O=C(COc1cccc(Cl)c1)NC1CN(Cc2ccn(-c3ccc(C(F)(F)F)cc3)c2)C1` has an IC50 [1] of 0.073 µM and an IC50 [2] of 0.042 µM.

Compound `O=C(COc1ccc(F)c(F)c1)N[C@H]1CC[C@@H](Nc2ccn(-c3ccc(C(F)(F)F)cc3)c2)CC1` has an IC50 [2] of 0.104 µM.
